Test results: ChEMBL document CHEMBL1201862, “PubChem BioAssay data set” (2004)
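Interpolation was linear, between the two tested concentrations surrounding the appropriate level; five concentrations were tested over 48 hours in 96-well plates. At the GI50, growth is halved.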 Activity calls are given as the source filed them. No stated cut-off is given here; in the data, active = GI50 up to about 1.1 µM and inactive = higher.

What was measured:
Assay in all cases: NCI-60 cell line screen, 48 h
[1] = test system: M14
[2] = test system: UACC-62
[3] = test system: RPMI-8226
[4] = test system: KM12
[5] = test system: HCC 2998
[6] = test system: SK-MEL-28
[7] = test system: SW-620
[8] = test system: RXF 393
[9] = test system: SK-MEL-5
[10] = test system: SNB-75
[11] = test system: OVCAR-3
[12] = test system: EKVX
[13] = test system: PC-3
[14] = test system: CAKI-1
[15] = test system: UO-31
[16] = test system: MCF7
[17] = test system: SNB-19
[18] = test system: IGROV-1
[19] = test system: MDA-MB-231
[20] = test system: SR
[21] = test system: MDA-N
[22] = test system: A549
[23] = test system: HOP-62
[24] = test system: K562
[25] = test system: MDA-MB-435
[26] = test system: HL-60
[27] = test system: SF-539
[28] = test system: DU-145
[29] = test system: HT-29
[30] = test system: OVCAR-5
[31] = test system: CCRF-CEM
[32] = test system: TK-10
[33] = test system: SF-268
[34] = test system: Malme-3M
[35] = test system: U-251
[36] = test system: OVCAR-8
[37] = test system: SK-OV-3
[38] = test system: NCI-H226
[39] = test system: COLO 205
[40] = test system: T47D
[41] = test system: SF-295
[42] = test system: MOLT-4
[43] = test system: HCT-116
[44] = test system: NCI-H23
[45] = test system: HCT-15
[46] = test system: ACHN
[47] = test system: 786-0
[48] = test system: NCI-H522
[49] = test system: SN12C
[50] = test system: UACC-257
[51] = test system: BT-549
[52] = test system: NCI/ADR-RES
[53] = test system: LOX IMVI
[54] = test system: SK-MEL-2
[55] = test system: HOP-92
[56] = test system: NCI-H460
[57] = test system: OVCAR-4

Measured: GI50

O=C(CCCN1CCC2(CC1)CC(=O)N(N1CCOCC1)C2=O)c1ccccc1
> 100 µM: [45]
inactive: [1] > 100 µM | [2] > 100 µM | [3] > 100 µM | [4] > 100 µM | [5] > 100 µM | [6] > 100 µM | [7] > 100 µM | [8] > 100 µM | [9] > 100 µM | [10] > 100 µM | [11] > 100 µM | [12] > 100 µM | [13] > 100 µM | [14] > 100 µM | [15] > 100 µM | [16] > 100 µM | [17] > 100 µM | [18] > 100 µM | [19] > 100 µM | [20] > 100 µM | [21] > 100 µM | [22] > 100 µM | [23] > 100 µM | [24] > 100 µM | [25] 19.1 µM | [26] > 100 µM | [27] > 100 µM | [28] > 100 µM | [29] > 100 µM | [30] > 100 µM | [31] > 100 µM | [32] > 100 µM | [33] > 100 µM | [34] > 100 µM | [35] > 100 µM | [36] > 100 µM | [37] > 100 µM | [38] > 100 µM | [39] > 100 µM | [40] > 100 µM | [41] > 100 µM | [42] > 100 µM | [43] > 100 µM | [44] > 100 µM | [46] > 100 µM | [47] > 100 µM | [48] > 100 µM | [49] > 100 µM | [50] > 100 µM | [51] 14.6 µM | [52] > 100 µM | [53] > 100 µM

COc1ccc(Nc2ccc3ccccc3c2-c2c(O)ccc3ccccc23)cc1
17.6 µM: [45]
inactive: [2] 29.9 µM | [3] 9.68 µM | [4] 16.1 µM | [5] 15.7 µM | [6] 13.1 µM | [7] 13.9 µM | [8] 20.2 µM | [9] 17 µM | [54] 14.4 µM | [55] 4.16 µM | [10] 19.9 µM | [11] 14.6 µM | [12] 14.9 µM | [13] 15.8 µM | [14] 16.1 µM | [15] 13.6 µM | [16] 11.8 µM | [17] 17.3 µM | [18] 11 µM | [19] 24.7 µM | [20] 4.93 µM | [21] 12.6 µM | [23] 12.6 µM | [24] 7.23 µM | [25] 3.99 µM | [26] 31.1 µM | [27] 25.7 µM | [28] 17.5 µM | [29] 16.1 µM | [30] 16.9 µM | [31] 18.3 µM | [32] 27.7 µM | [33] 17.8 µM | [35] 22.6 µM | [36] 18.1 µM | [56] 16.4 µM | [38] 16.6 µM | [39] 24 µM | [57] 19 µM | [40] 15.6 µM | [41] 18.4 µM | [42] 10.1 µM | [43] 17.5 µM | [44] 15.2 µM | [46] 16.2 µM | [47] 17.1 µM | [48] 18.2 µM | [49] 15.5 µM | [50] 22.1 µM | [51] 24.4 µM | [52] 15.4 µM | [53] 17.9 µM
